Reference: patent US10092620B2, “Uses of cyclic peptides for treating and preventing atherosclerosis” (THE SCRIPPS RESEARCH INSTITUTE, priority 2013, dated 2018)
“Also recorded” adds a separate entry of the source. Non-standard residues stand in square brackets, D forms with d. dNMeW = CN[C@H](Cc1c[nH]c2ccccc12)C(=O)O; dNMeE = CN[C@H](CCC(=O)O)C(=O)O

Legend:
plasma HDL = test: in vivo plasma HDL remodeling after intraperitoneal injection (Western blotting for mouse apoA-I); conditions: male mice (n=3), i.p. 18-24 mg/kg; FIG. 9
Method: To ascertain if the cyclic D,L-α-peptides function in vivo as modulators of HDL, we administered 1 to mice (BALB/c, n=3) via intraperitoneal injection (i.p.) at a dose of 20 mg/kg. After various times, blood was drawn and the plasma was analyzed by Western blotting to determine the levels of the HDL subpopulations.
In vivo plasma remodeling: Cyclic peptide c[wLwReQeR], 1, was dissolved in 10% sucrose, and sterile filtered through a 0.22-μm syringe filter before injection. Mice were fasted beginning 12 h before dosing, and continued the fast until after the 8-h time point blood draw was completed. Groups of three mice received a 20 mg/kg dose of the cyclic peptide via intraperitoneal injection (0.3 mL). Blood was drawn (30-60 μL) from the retro-orbital sinus into a heparinized capillary tube before dosing (0 min) and at different intervals from 30 min to 8 h after dosing. Plasma was isolated immediately from the whole blood by centrifugation at 5000 rpm for 10 min at 4° C., after which 10 μL of plasma were mixed with 90 μL of 50% sucrose, vortexed for 30 s, and stored at 4° C. until all time points had been collected (samples were stored from 0-8 h). Samples were then mixed with 20 μL of 6× native loading buffer (125 mM tris, pH 6.8, 0.02% bromophenol, 20% glycerol). 6 μL of these samples were loaded onto a 4-20% polyacrylamide gel. Gels were run at constant 80 V at 4° C. for 14 h using a Laemli buffer system (25 mM tris, 192 mM glycine, pH 8.3). Gels were then blotted onto nitrocellulose membranes (0.45 μm, Bio-Rad) at constant 30 V at 4° C. for 2 h using the Laemli buffer (no methanol). The membrane was blocked with 5% non-fat dry milk (NFDM) in TBST (20 mM tris, 150 mM NaCl, pH 7.6, 0.1% Tween-20) for 1 h at 23° C., and then washed once for 10 min with TBST. […]
In vivo plasma HDL remodeling activities of some of the peptides were also analyzed. […] Results shown in the figure were determined by Western blotting for mouse apoA-I.

HDL in human plasma = test: pre-beta HDL ELISA assay: remodeling HDL in human plasma in vitro; type: biochemical
Method: First, various cyclic peptides, including the majority of compounds shown in FIG. 2, were assessed for activities for remodeling HDL in human plasma in vitro. Unlike western blot which was used to generate data shown in FIG. 2, here a pre-beta HDL ELISA assay was used to measure pre-beta HDL levels. Results from the assay are shown in Table 1, which lists the peptides in the order of their activities in remodeling HDL.

LDLr-null mice [1] = test: in vivo efficacy study: plasma total cholesterol in high-fat-fed LDLr-null mice; design: species or system mouse; conditions: oral 35 mg/kg in drinking water, two weeks, female LDLr-null mice, high-fat diet; FIG. 7
Description: Encouraged by the above findings, we carried out a 2-week pilot study to determine the effect of 1 on plasma total cholesterol levels. As an animal model, we employed the LDLr-null mouse, which has a human-like lipoprotein profile and is a leading animal model for studying hypercholesterolemia and atherogenesis. Considering that the abiotic nature of cyclic D,L-α-peptides renders them highly resistant to proteolysis, we chose to conduct this pilot in vivo efficacy study via the more convenient oral route of administration. Thus, the cyclic D,L-α-peptide was administered orally in the drinking water for two weeks (each mouse drank ˜0.5 mg peptide per day, or ˜25 mg/kg/day) to mice maintained on a high-fat diet.
(§1) In vivo efficacy study: LDL receptor-null (LDLr^−/−) mice on a C57BL/6J background were initially purchased from Jackson Laboratories (Bar Harbor, Me.) and were bred in house. The mice were weaned at 4 weeks of age and were fed ad libitum a standard chow diet (Harlan Teklad 7019) until they were 10-weeks old, when they were switched to a high-fat Western diet (WD) containing 15.8% (wt/wt) fat, 1.25% (wt/wt) cholesterol, and no cholate (Harlan Teklad 94059). At the time that the WD was started, the test cyclic peptide was added to the drinking water at a high dose of 180 μM (200 μg/mL) or a low dose of 18 μM (20 μg/mL) and the mice (female, n=8 per dosing group) were continued on WD for 10 weeks. The lyophilized peptide was easily dissolved in PBS (pH 7.4) containing 1% sucrose, resulting in a clear solution. The drinking water solution was replaced with fresh solution every day. A control group of eight mice (female, n=8) were fed WD with vehicle (PBS with 1% sucrose) drinking water. The mice consumed approximately 2.5 mL of water per day per mouse, and there was no significant difference in water or food consumption between groups.
Effect of cyclic peptides on plasma total cholesterol: The mice were bled after two weeks of treatment and at the time of harvest (10 weeks). The blood (200 μL) was collected after an overnight fast (14-16 h) by retro-orbital puncture into a heparinized capillary tube at two weeks, or by cardiac puncture into EDTA anti-coagulant coated tubes at the time of harvest (10 weeks). Plasma was separated from whole blood immediately by centrifugation of the blood samples at 5000 rpm for 10 min at 4° C., and was then stored at −80° C. Plasma total cholesterol (TC) was measured using an enzymatic colorimetric method kit (Amplex® red cholesterol assay kit, No. A12216, Life Technologies) according to the manufacturer's instructions.
In addition, several peptides were administered orally to mice at a 35 mg/kg dose (unless otherwise noted) in the drinking water for two weeks. The female LDLr-null mice maintained on a high-fat diet were provided with peptide-treated 1% sucrose/PBS or 1% sucrose/PBS alone as the drinking water ad libitum. Cholesterol levels were then determined. The data are shown in FIG. 7 as a scatter plot along with mean±SD. p values were determined by the one-way ANOVA test with a post hoc Tukey-Kramer test.

LDLr-null mice [2] = test: evaluation of atherosclerosis: whole aorta lesion area and aortic sinus lesion volume; type: in vivo, mouse; conditions: oral 35 mg/kg in drinking water, 10 weeks, female LDLr-null mice; FIG. 8; 35 mg/kg
Description: as §1
Evaluation of atherosclerosis: Atherosclerotic lesion severity was assessed in the aortae as previously described in Mullick et al., J. Clin. Invest. 115, 3149-3156, 2005. Briefly, at euthanasia, animals were perfused with PBS, followed by 4% formaldehyde (10% UltraPure EM Grade from Polysciences diluted in PBS, pH 7.2). For en face analysis, the entire mouse aorta was dissected from the proximal ascending aorta to the bifurcation of the iliac artery by using a dissecting microscope. Adventitial fat was removed, and the aorta was opened longitudinally, pinned flat onto black dissecting wax, stained with Sudan IV, and photographed at a fixed magnification. The photographs were digitized, and total aortic areas and lesion areas were calculated by using Adobe Photoshop version CS4, Chromatica V, and NIH Scion Image software (http://rsb.info.nih.gov/nih-image/Default.html). The results were reported as a percentage of the total aortic area that contained lesions.
As a second assessment of atherosclerosis, lesions of the aortic root (heart sinus) were analyzed. Utilizing stereological principles, lesion volume was estimated across a fixed distance of the aortic sinus. […] Lesion areas found only within the valve cusp were measured. […] Lesion volume was calculated from an integration of the measured cross-sectional areas. […]
Other than their in vivo cholesterol reducing activities, several peptides were also examined for ability to inhibit development of atherosclerotic legions in vivo. […] All charts in the figure are shown as a scatter plot along with mean±SD. p values were determined by the one-way ANOVA test with a post hoc Tukey-Kramer test.

| Substance | in vivo plasma HDL remodeling, level of lipid-poor pre-beta particles (plasma HDL) | Pre-beta HDL generated (normalized level) (HDL in human plasma; pre-beta HDL ELISA) | plasma cholesterol levels (in words) (LDLr-null mice [1]) | development of atherosclerotic lesions: whole aorta lesion areas and aortic sinus lesion volumes (in words) (LDLr-null mice [2]) | activity in generating pre-beta HDL (in words) (HDL in human plasma) |
| --- | --- | --- | --- | --- | --- |
| 53 (cyclo([dW]L[dW]K[dH]S[dH]K); SMILES CC(C)C[C@@H]1NC(=O)[C@@H](Cc2c[nH]c3ccccc23)NC(=O)[C@H](CCCCN)NC(=O)[C@@H](Cc2c[nH]cn2)NC(=O)[C@H](CO)NC(=O)[C@@H](Cc2c[nH]cn2)NC(=O)[C@H](CCCCN)NC(=O)[C@@H](Cc2c[nH]c3ccccc23)NC1=O) [compound 53] | able to remodel plasma HDL to increase the level of lipid-poor pre-beta particles | 0.79 | – | – | – |
| 82 (cyclo(WIW[dW]K[dH]K[dH]); SMILES CC[C@H](C)[C@@H]1NC(=O)[C@H](Cc2c[nH]c3ccccc23)NC(=O)[C@@H](Cc2c[nH]cn2)NC(=O)[C@H](CCCCN)NC(=O)[C@@H](Cc2c[nH]cn2)NC(=O)[C@H](CCCCN)NC(=O)[C@@H](Cc2c[nH]c3ccccc23)NC(=O)[C@H](Cc2c[nH]c3ccccc23)NC1=O) [compound 82] | able to remodel plasma HDL to increase the level of lipid-poor pre-beta particles | – | – | – | – |
| c[(Me)wLwR(Me)eQeR] (cyclo([dNMeW]L[dW]R[dNMeE]Q[dE]R)) [SEQ ID NO:46] | – | – | negatively affect | remains very effective as the parent compound; also recorded: similarly effective as the parent compound in preventing the development of atherosclerotic lesions | negatively affect |
